# Reference: patent US20250235455A1, “AQUEOUS TICAGRELOR SOLUTIONS, METHOD OF MANUFACTURING AND USES” (HYLORIS DEVELOPMENTS SA, priority 2022, published 2025)
# Legend:
# Format in all cases: physicochemical
# Flocculation test = assay: Flocculation test
# [1] = pH and osmolality determination in undiluted batches; conditions: 19 mM phosphate buffer pH 7.5
# Excerpt: From the results obtained in Example 4 it follows that the concentration of excipients may be such that the resulting ticagrelor solution is hypertonic. The osmolality and pH of several batches was checked.
# [2] = Stability of ticagrelor 6 mg/ml in HPβCD 40% w/w, buffer pH 4.5, 5.5, 6.5, stored at 40° C. and 75% RH (HPLC related substances)
# Method: HPβCD was dissolved in a buffer solution of pH 4.5, 5.5 or 6.5 prepared separately in water. […] The ticagrelor in buffer solution was filtered through a 0.22 micron filtered and filled in USP Type I glass vials. The vials were stoppered and stored. All precautions were taken during manufacturing, such as N2 purging and avoiding direct exposure to light. The vials were stored at 40° C. and 75% Relative Humidity (RH).
# To determine the stability of the formulations, batches were evaluated using a related substance method on HPLC.
# A Gradient HPLC method was used to analyze impurities in formulations using a YMC-Pack Pro C18 column (100×4.6 mm, S-3 μm 12 nm). Good separation was obtained for all the impurities. • Amine impurity: (1S,2S,3R,5S)-3-(7-amino-5-(propylsulfanyl)-3H-[1,2,3]triazolo[4,5-d]pyrimidin-3-yl)-5-(2-hydroxyethoxy)cyclopentane-1,2-diol. This is a process related degradant impurity. • Regiomer impurity: (1S, 2S, 3R, 5S)-3-((3-((1R,2S)-2-(3,4-Difluorophenyl)cyclopropyl)-5-(propylsulfanyl)-3H-[1,2,3]triazolo[4,5-d]pyrimidin-7-yl)amino)-5-(2-hydroxyethoxy)cyclopentane-1,2-diol. This is a process related degradant impurity. • Acetal impurity: 2-[[(3aR,4S,6S,6aS)-6-[7-[1R,2S)-2-(3,4-difluorophenyl)-cyclopropyl]amino]-5-(propylsulfanyl)-3H-[1,2,3]triazolo-[4,5-d]pyrimidin-3-yl]-2,2-dimethyltetrahydro-2H-3aHcyclopenta[d][1,3]dioxol-4-yl]oxy]ethan-1-ol.
# [3] = Impact of buffer strength on pH, osmolality, assay and impurities
# Method: In addition, a screening was conducted on the impact of buffer strength on pH and osmolality.
# [4] = pH 4.5, T = 2 weeks, 40° C./75% RH
# [5] = pH 4.5, T = 4 weeks, 40° C./75% RH
# [6] = pH 5.5, T = 2 weeks, 40° C./75% RH
# [7] = pH 5.5, T = 4 weeks, 40° C./75% RH
# [8] = pH 6.5, T = 2 weeks, 40° C./75% RH
# [9] = pH 6.5, T = 4 weeks, 40° C./75% RH
# [10] = Phosphate buffer pH 7.5 strength 0.19 mM
# [11] = Phosphate buffer pH 7.5 strength 5 mM
# [12] = Phosphate buffer pH 7.5 strength 10 mM
# [13] = Phosphate buffer pH 7.5 strength 19 mM
compound,measurement,setting,value
"CCCSc1nc(N[C@@H]2C[C@H]2c2ccc(F)c(F)c2)c2nnn([C@@H]3C[C@H](OCCO)[C@@H](O)[C@H]3O)c2n1 [Ticagrelor, (1S,2S,3R,5S)-3-{7-[(1R,2S)-2-(3,4-difluorophenyl)cyclopropylamino]5-(propylthio)-3H-(1,2,3)triazolo (4,5-D)pyrimidin-3-yl}-5-(2 hydroxyethoxy)cyclopentane-1,2-diol]",Flocculation test,"Flocculation test; HPβCD 25% w/w, ticagrelor 5 mg/ml",did not pass
same,Flocculation test,"Flocculation test; HPβCD 30% w/w, ticagrelor 5 mg/ml",passed
same,Flocculation test,"Flocculation test; HPβCD 35% w/w, ticagrelor 5 mg/ml",passed
same,Flocculation test,"Flocculation test; HPβCD 35% w/w, ticagrelor 10 mg/ml",did not pass
same,Flocculation test,"Flocculation test; HPβCD 40% w/w, ticagrelor 5 mg/ml",passed
same,Flocculation test,"Flocculation test; HPβCD 40% w/w, ticagrelor 10 mg/ml",passed
same,Flocculation test,"Flocculation test; SBECD 40% w/w, ticagrelor 5 mg/ml",passed
same,Assay,[1]; HPβCD 22.5% w/w,98.15%
same,Osmolality undiluted,[1]; HPβCD 22.5% w/w,392 mOsm/kg
same,Total Impurities,[1]; HPβCD 22.5% w/w,0.39%
same,pH undiluted,[1]; HPβCD 22.5% w/w,7.67
same,Assay,[1]; HPβCD 25.0% w/w,103.23%
same,Osmolality undiluted,[1]; HPβCD 25.0% w/w,493 mOsm/kg
same,Total Impurities,[1]; HPβCD 25.0% w/w,0.41%
same,pH undiluted,[1]; HPβCD 25.0% w/w,7.69
same,Assay,[1]; HPβCD 27.5% w/w,104.27%
same,Osmolality undiluted,[1]; HPβCD 27.5% w/w,549 mOsm/kg
same,Total Impurities,[1]; HPβCD 27.5% w/w,0.42%
same,pH undiluted,[1]; HPβCD 27.5% w/w,7.69
same,Assay,[1]; HPβCD 30.0% w/w,107.64%
same,Osmolality undiluted,[1]; HPβCD 30.0% w/w,638 mOsm/kg
same,Total Impurities,[1]; HPβCD 30.0% w/w,0.44%
same,pH undiluted,[1]; HPβCD 30.0% w/w,7.74
same,Assay,[1]; HPβCD 32.5% w/w,99.26%
same,Osmolality undiluted,[1]; HPβCD 32.5% w/w,813 mOsm/kg
same,Total Impurities,[1]; HPβCD 32.5% w/w,0.41%
same,pH undiluted,[1]; HPβCD 32.5% w/w,7.68
same,Regiomer impurity level,"[2]; 4 weeks 40° C. and 75% RH, specification limit 0.3%",~0.3%
same,Acetal impurity content,"[2]; pH 4.5, T = 0",0.05%
same,Amine impurity content,"[2]; pH 4.5, T = 0",0.05%
same,"Content of unnamed impurity, relative retention time 1.52","[2]; pH 4.5, T = 0",0.03%
same,Oxidative impurity 1 content,"[2]; pH 4.5, T = 0",0.00%
same,Oxidative impurity 2 content,"[2]; pH 4.5, T = 0",0.00%
same,Regiomer impurity content,"[2]; pH 4.5, T = 0",0.00%
same,Sum Impurities >0.05,"[2]; pH 4.5, T = 0",0.22%
same,Total Impurities,"[2]; pH 4.5, T = 0",0.36%
same,Triol impurity content,"[2]; pH 4.5, T = 0",0.05%
same,Acetal impurity content,[2]; [4],0.06%
same,Amine impurity content,[2]; [4],0.05%
same,"Content of unnamed impurity, relative retention time 1.52",[2]; [4],0.04%
same,Oxidative impurity 1 content,[2]; [4],0.00%
same,Oxidative impurity 2 content,[2]; [4],0.00%
same,Regiomer impurity content,[2]; [4],0.00%
same,Sum Impurities >0.05,[2]; [4],0.23%
same,Total Impurities,[2]; [4],0.40%
same,Triol impurity content,[2]; [4],0.05%
same,Acetal impurity content,[2]; [5],0.05%
same,Amine impurity content,[2]; [5],0.05%
same,"Content of unnamed impurity, relative retention time 1.52",[2]; [5],0.03%
same,Oxidative impurity 1 content,[2]; [5],0.01%
same,Oxidative impurity 2 content,[2]; [5],0.02%
same,Regiomer impurity content,[2]; [5],0.42%
same,Sum Impurities >0.05,[2]; [5],0.63%
same,Total Impurities,[2]; [5],0.80%
same,Triol impurity content,[2]; [5],0.05%
same,Acetal impurity content,"[2]; pH 5.5, T = 0",0.05%
same,Amine impurity content,"[2]; pH 5.5, T = 0",0.04%
same,"Content of unnamed impurity, relative retention time 1.52","[2]; pH 5.5, T = 0",0.02%
same,Oxidative impurity 1 content,"[2]; pH 5.5, T = 0",0.00%
same,Oxidative impurity 2 content,"[2]; pH 5.5, T = 0",0.00%
same,Regiomer impurity content,"[2]; pH 5.5, T = 0",0.00%
same,Sum Impurities >0.05,"[2]; pH 5.5, T = 0",0.16%
same,Total Impurities,"[2]; pH 5.5, T = 0",0.33%
same,Triol impurity content,"[2]; pH 5.5, T = 0",0.05%
same,Acetal impurity content,[2]; [6],0.05%
same,Amine impurity content,[2]; [6],0.05%
same,"Content of unnamed impurity, relative retention time 1.52",[2]; [6],0.03%
same,Oxidative impurity 1 content,[2]; [6],0.00%
same,Oxidative impurity 2 content,[2]; [6],0.00%
same,Regiomer impurity content,[2]; [6],0.00%
same,Sum Impurities >0.05,[2]; [6],0.21%
same,Total Impurities,[2]; [6],0.36%
same,Triol impurity content,[2]; [6],0.05%
same,Acetal impurity content,[2]; [7],0.05%
same,Amine impurity content,[2]; [7],0.04%
same,"Content of unnamed impurity, relative retention time 1.52",[2]; [7],0.02%
same,Oxidative impurity 1 content,[2]; [7],0.01%
same,Oxidative impurity 2 content,[2]; [7],0.02%
same,Regiomer impurity content,[2]; [7],0.30%
same,Sum Impurities >0.05,[2]; [7],0.45%
same,Total Impurities,[2]; [7],0.65%
same,Triol impurity content,[2]; [7],0.05%
same,Acetal impurity content,"[2]; pH 6.5, T = 0",0.06%
same,Amine impurity content,"[2]; pH 6.5, T = 0",0.05%
same,"Content of unnamed impurity, relative retention time 1.52","[2]; pH 6.5, T = 0",0.03%
same,Oxidative impurity 1 content,"[2]; pH 6.5, T = 0",0.00%
same,Oxidative impurity 2 content,"[2]; pH 6.5, T = 0",0.00%
same,Regiomer impurity content,"[2]; pH 6.5, T = 0",0.00%
same,Sum Impurities >0.05,"[2]; pH 6.5, T = 0",0.22%
same,Total Impurities,"[2]; pH 6.5, T = 0",0.36%
same,Triol impurity content,"[2]; pH 6.5, T = 0",0.06%
same,Acetal impurity content,[2]; [8],0.06%
same,Amine impurity content,[2]; [8],0.05%
same,"Content of unnamed impurity, relative retention time 1.52",[2]; [8],0.04%
same,Oxidative impurity 1 content,[2]; [8],0.00%
same,Oxidative impurity 2 content,[2]; [8],0.00%
same,Regiomer impurity content,[2]; [8],0.00%
same,Sum Impurities >0.05,[2]; [8],0.23%
same,Total Impurities,[2]; [8],0.41%
same,Triol impurity content,[2]; [8],0.06%
same,Acetal impurity content,[2]; [9],0.06%
same,Amine impurity content,[2]; [9],0.05%
same,"Content of unnamed impurity, relative retention time 1.52",[2]; [9],0.03%
same,Oxidative impurity 1 content,[2]; [9],0.00%
same,Oxidative impurity 2 content,[2]; [9],0.04%
same,Regiomer impurity content,[2]; [9],0.35%
same,Sum Impurities >0.05,[2]; [9],0.56%
same,Total Impurities,[2]; [9],0.72%
same,Triol impurity content,[2]; [9],0.05%
same,Osmolality sample,[3]; Phosphate buffer pH 7.5,809 mOsm/kg
same,Assay,[3]; [10],102.23%
same,Total Impurities,[3]; [10],0.42%
same,pH sample,[3]; [10],7.18
same,Assay,[3]; [11],100.49%
same,Osmolality sample,[3]; [11],703 mOsm/kg
same,Total Impurities,[3]; [11],0.40%
same,pH sample,[3]; [11],7.66
same,Assay,[3]; [12],102.98%
same,Osmolality sample,[3]; [12],724 mOsm/kg
same,Total Impurities,[3]; [12],0.42%
same,pH sample,[3]; [12],7.69
same,Assay,[3]; [13],102.58%
same,Osmolality sample,[3]; [13],758 mOsm/kg
same,Total Impurities,[3]; [13],0.42%
same,pH sample,[3]; [13],7.70
